Laboratory results: US20250296938A1, “Compounds that Interact with the Ras Superfamily for the Treatment of Cancers, Inflammatory Diseases, Rasopathies, and Fibrotic Disease” (SHY Therapeutics, LLC, priority 2018, published 2025)

Columns and labels:
IL-6 = experiment: Mouse IL6 quantification assay, LPS-stimulated RAW 264.7 macrophages; format: cell-based; conditions: for inhibition at 30 µM: RAW264.7, 30 μM, LPS-stimulated RAW 264.7 macrophages; for inhibition at 10 µM: RAW264.7, 10 μM, LPS (100 ng/ml) added concurrently, 5 hours, RAW 264.7
Procedure: (§1) Cell lines: Abelson murine leukemia virus transformed macrophage cell line RAW 264.7 was purchased from ATCC and grown in complete DMEM-High Glucose medium supplemented with penicillin (100 U/mL), streptomycin (100 μg/mL), and 10% heat-inactivated FBS at 37° C. in a humidified incubator with 5% CO2.
(§2) Method: Cells were plated at 25000-40000 cells/well density in a 96-well plate. After a 3-hour incubation, macrophages were starved with DMEM plus 0.5% FBS overnight. The next day the small molecules to be tested were added to the cells in the final concentration of 30 μM (with 0.3% DMSO) 3 hours prior to LPS stimulation (100 ng/ml). After LPS stimulation cells were incubated at 37° C. for 16 h. Alternatively, compounds were also tested at 10 μM and LPS (100 ng/ml) was added concurrently and incubated 5 hours at 37° C. At the end of the incubation periods, culture medium was collected and production of LPS-induced TNF-α and IL-6 cytokine was measured using ELISA detection kits.
(§3) Sandwich ELISA: The ELISA Immunoassays Quantikine Mouse TNF-alpha (catalog number MTA00B) and IL6 (catalog number M6000B) were purchased from R&D Systems Inc., Minneapolis, MN. These 4.5 hours solid phase ELISAs were used to measure mouse TNF-α or IL-6 levels in macrophages culture supernatants. Assays were executed according to the manufacturer specifications.

TNF-α = experiment: Mouse TNF alpha quantification assay, LPS-stimulated RAW 264.7 macrophages; format: cell-based; conditions: for inhibition at 30 µM: RAW264.7, 30 μM, LPS-stimulated RAW 264.7 macrophages; for inhibition at 10 µM: RAW264.7, 10 μM, LPS (100 ng/ml) added concurrently, 5 hours, RAW 264.7, read-out: TNFα % Inhibition
Procedure: as §1, §2, §3

Row | Structure (SMILES) | inhibition at 30 µM (IL-6) [%] | inhibition at 30 µM (TNF-α) [%] | inhibition at 10 µM (IL-6) [%] | inhibition at 10 µM (TNF-α) [%]
1 | Cn1ccc(-c2sc3nc(-c4nccn4C)nc(NC4CCOCC4)c3c2-c2ccccc2)n1 [drawing 681] | 26 to 50 | 1 to 25 |  | 
2 | COc1ccc(-c2c(-c3ccn(C)n3)sc3nc(-c4nccn4C)nc(N4CCC(OC)C4)c23)cc1 (stereo not shown) [drawing 690] | 1 to 25 | 0 |  | 
3 | COC1CCN(c2nc(-c3nccn3C)nc3sc(-c4cnn(C)c4)c(-c4ccccc4)c23)C1 (stereo not shown) [drawing 710] | 26 to 50 | 51 to 75 |  | 
4 | CO[C@H]1C[C@@H](Nc2nc(-c3nccn3C)nc3sc(-c4cnn(C)c4)c(-c4ccccc4)c23)C1 [drawing 757] |  |  | 51 to 75 | 1 to 25
5 | CO[C@H]1C[C@@H](Nc2nc(-c3ncc[nH]3)nc3sc(-c4ccn(C)n4)c(-c4ccccc4)c23)C1 [drawing 775] |  |  | 76 to 100 | 1 to 25
6 | COC1CCN(c2nc(-c3nccn3C)nc3sc(-c4ccn(C)n4)c(-c4ccccc4)c23)CC1 [drawing 687] | 26 to 50 | 26 to 50 |  | 
7 | COc1cccc(-c2sc3nc(-c4nccn4C)nc(N4CCC(OC)C4)c3c2-c2ccccc2)c1F (stereo not shown) [drawing 719] | 76 to 100 | 76 to 100 |  | 
8 | CO[C@H]1C[C@H](Nc2nc(-c3nccn3C)nc3sc(-c4ccn(C)n4)c(-c4ccccc4)c23)C1 [drawing 771] |  |  | 76 to 100 | 76 to 100
9 | COCC1CN(c2nc(-c3nccn3C)nc3sc(-c4cccc(OC)c4F)c(-c4ccc(OC)cc4)c23)C1 [drawing 718] | 76 to 100 | 76 to 100 |  | 
10 | CO[C@H]1CC[C@@H](Nc2nc(-c3nccn3C)nc3sc(-c4ccn(C(C)C)n4)c(C)c23)C1 [drawing 784] |  |  | 51 to 75 | 26 to 50
11 | COc1cccc(Cn2ccnc2-c2nc(O)c3scc(-c4ccc(OCC(C)C)nc4)c3n2)c1 [drawing 765] |  |  | 76 to 100 | 1 to 25
12 | CO[C@H]1C[C@@H](Nc2nc(-c3nccn3C)nc3sc(-c4ccn(C)n4)c(C)c23)C1 [drawing 779] |  |  | 76 to 100 | 1 to 25
13 | Cc1c(-c2ccn(C)n2)sc2nc(-c3nccn3C)nc(NCCOC(=O)N(C)C)c12 [drawing 783] |  |  | 51 to 75 | 26 to 50
14 | CO[C@H]1CC[C@@H](Nc2nc(-c3nccn3C)nc3sc(-c4ccn(C(C)C)n4)c(-c4ccccc4)c23)C1 [drawing 777] |  |  | 76 to 100 | 76 to 100
15 | COc1c(F)cccc1-c1sc2nc(-c3nccn3C)nc(N[C@@H]3CC[C@H](OC)C3)c2c1-c1ccccc1 [drawing 752] |  |  | 0 | 0
16 | COCC(C)Nc1nc(-c2nccn2C)nc2sc(-c3ccccc3Cl)c(-c3cscn3)c12 (stereo not shown) [drawing 691] | 76 to 100 | 76 to 100 |  | 
17 | COC1CCN(c2nc(-c3nccn3C)nc3sc(-c4ccn(C)n4)c(-c4ccccc4)c23)C1 (stereo not shown) [drawing 680] | 26 to 50 | 1 to 25 |  | 
18 | CO[C@H]1CC[C@@H](Nc2nc(-c3nccn3C)nc3sc(C(=O)N4CCOCC4)c(-c4ccccc4)c23)C1 [drawing 792] |  |  | 26 to 50 | 1 to 25
19 | Cc1cn(C)c(-c2nc(O)c3scc(-c4ccccn4)c3n2)n1 [drawing 672] | 76 to 100 | 76 to 100 |  | 
20 | Cn1ccnc1-c1nc(O)c(O)c(C(=O)NC2CCC2)n1 [drawing 742] | 0 | 1 to 25 |  | 
21 | COC1CCN(c2nc(-c3nccn3C)nc3sc(-c4ccc(N)nc4C)c(-c4ccccc4)c23)C1 (stereo not shown) [drawing 712] | 1 to 25 | 0 |  | 
22 | COC1CCN(c2nc(-c3nccn3C)nc3sc(-c4cnc(C5CC5)o4)c(-c4ccccc4)c23)C1 (stereo not shown) [drawing 707] | 76 to 100 | 26 to 50 |  | 
23 | COc1ncccc1-c1sc2nc(-c3nccn3C)nc(N3CCC(OC)C3)c2c1-c1ccccc1 (stereo not shown) [drawing 706] | 76 to 100 | 76 to 100 |  | 
24 | Cc1c(-c2ccn(C)n2)sc2nc(-c3nccn3C)nc(NCCCC(=O)N(C)C)c12 [drawing 782] |  |  | 1 to 25 | 1 to 25
25 | COC1CCC(Nc2nc(-c3nccn3C)nc3sc(-c4cccc5[nH]ncc45)c(-c4ccccc4)c23)C1 (stereo not shown) [drawing 753] |  |  | 76 to 100 | 51 to 75

Row | Structure (SMILES) | inhibition at 30 µM (IL-6) [%] | inhibition at 30 µM (TNF-α) [%] | inhibition at 10 µM (IL-6) [%] | inhibition at 10 µM (TNF-α) [%]
26 | CN(Cc1ccccc1)C(=O)c1nc(-c2ccccn2)nc(O)c1O [drawing 729] | 1 to 25 | 0 |  | 
27 | COc1c(O)nc(-c2ccccn2)nc1Oc1cnn(C)c1 [drawing 720] | 26 to 50 | 0 |  | 
28 | COC1CCC(Nc2nc(-c3nccn3C)nc3sc(-c4cccc5[nH]ncc45)c(C)c23)C1 (stereo not shown) [drawing 760] |  |  | 51 to 75 | 1 to 25
29 | Cn1ccc(-c2sc3nc(-c4nccn4C)nc(NCC4CCOC4)c3c2-c2ccccc2)n1 (stereo not shown) [drawing 682] | 76 to 100 | 76 to 100 |  | 
30 | COC1CCN(c2nc(-c3nccn3C)nc3sc(-c4ccccc4CO)c(-c4ccccc4)c23)C1 (stereo not shown) [drawing 713] | 76 to 100 | 76 to 100 |  | 
31 | CC(C)CNC(=O)c1nc(-c2ccccn2)nc(O)c1O [drawing 734] | 76 to 100 | 26 to 50 |  | 
32 | COCC(C)Nc1nc(-c2nccn2C)nc2sc(-c3ccn(C)n3)c(-c3ccc(OC)cc3)c12 (stereo not shown) [drawing 689] | 76 to 100 | 0 |  | 
33 | COc1cccc(Cn2ccnc2-c2nc(O)c3scc(-c4ccccn4)c3n2)c1 [drawing 670] | 76 to 100 | 76 to 100 |  | 
34 | Cn1ccc(-c2sc3nc(-c4nccn4C)nc(O)c3c2-c2ccccc2)n1 [drawing 769] |  |  | 51 to 75 | 1 to 25
35 | CCn1cc(Nc2nc(-c3ccccn3)nc(O)c2OC)cn1 [drawing 746] |  |  | 76 to 100 | 1 to 25
36 | COCCn1ccnc1-c1nc(O)c2scc(-c3ccccn3)c2n1 [drawing 667] | 76 to 100 | 76 to 100 |  | 
37 | COc1ccc(-c2sc3nc(-c4nccn4C)nc(N4CCC(OC)C4)c3c2-c2ccccc2)cn1 (stereo not shown) [drawing 705] | 76 to 100 | 76 to 100 |  | 
38 | COCCNc1nc(-c2nccn2C)nc2sc(-c3cc(OC)ccc3Cl)c(-c3ccccc3)c12 [drawing 701] | 51 to 75 | 1 to 25 |  | 
39 | CO[C@H]1CC[C@@H](Nc2nc(-c3nccn3C)nc3sc(C(=O)NC(C)C)c(-c4ccccc4)c23)C1 [drawing 789] |  |  | 51 to 75 | 1 to 25
40 | COc1nscc1-c1sc2nc(-c3nccn3C)nc(N3CCC(OC)C3)c2c1-c1ccccc1 (stereo not shown) [drawing 714] | 76 to 100 | 76 to 100 |  | 
41 | CC(C)CN(C)C(=O)c1nc(-c2ccccn2)nc(O)c1O [drawing 733] | 0 | 0 |  | 
42 | O=C(NCc1ccccc1)c1nc(-c2ccccn2)nc(O)c1O [drawing 730] | 76 to 100 | 76 to 100 |  | 
43 | CN(C)CCOCCNc1nc(-c2nccn2C)nc2sc(-c3ccn(C)n3)c(-c3ccccc3)c12 [drawing 772] |  |  | 76 to 100 | 26 to 50
44 | COc1cccc(Oc2nc(-c3ccccn3)nc(O)c2OC)c1 [drawing 723] | 76 to 100 | 26 to 50 |  | 
45 | COCCNC(=O)c1sc2nc(-c3nccn3C)nc(N[C@@H]3CC[C@H](OC)C3)c2c1-c1ccccc1 [drawing 790] |  |  | 51 to 75 | 1 to 25
46 | Oc1nc(-c2nccn2Cc2ccccn2)nc2c(-c3ccccn3)csc12 [drawing 669] | 76 to 100 | 51 to 75 |  | 
47 | COCCNc1nc(-c2nccn2C)nc2sc(-c3cc(OC)ccc3Cl)c(-c3ccc(OC)cc3)c12 [drawing 698] | 51 to 75 | 26 to 50 |  | 
48 | COCC(C)Nc1nc(-c2nccn2C)nc2sc(-c3cccc(OC)c3)c(-c3cscn3)c12 (stereo not shown) [drawing 693] | 26 to 50 | 26 to 50 |  | 
49 | COCCNc1nc(-c2nccn2C)nc2sc(-c3cccc(OC)c3)c(-c3ccc(OC)cc3)c12 [drawing 696] | 76 to 100 | 76 to 100 |  | 
50 | COCC1CCN(c2nc(-c3nccn3C)nc3sc(-c4ccn(C)n4)c(-c4ccccc4)c23)C1 (stereo not shown) [drawing 685] | 76 to 100 | 76 to 100 |  | 
